This is an account of results in patent US20230150924A1, “NOVEL COMPOUND HAVING CANCER METASTASIS INHIBITORY ACTIVITY, PREPARATION METHOD THEREFOR, AND PHARMACEUTICAL COMPOSITION FOR INHIBITING CANCER METASTASIS AND INVASION OR TREATING COLORECTAL CANCER, COMPRISING COMPOUND” (CELLGENTEK CO., LTD., priority 2019, published 2023).

SMILES strings stand for the structures. Like-named read-outs stand apart in the source and are kept apart here.

The test system of assay [1] is KAI1 promoter. Put plainly: KAI1 promoter luciferase reporter assay in transfected Caco2 cells. The note with it: Homo sapiens, Caco-2, 16 h, read-out: Relative KAI promoter activity. The format is cell-based, human.
The subject of assay [2] is invasion of colorectal cancer cells. Nature of the assay: In vivo relative invation (invasion; EV and KITENIN controls, no method described). To be noted: relative to EV (=1); KIT = KITENIN.
Setting [3] is: 1 μM compound, 16 hours, transfected Caco2 cells, luciferase activity relative to DMSO control (=1).

In the case of `COc1ccc(CNC(=O)COc2ccccc2C(=O)NCC(=O)c2ccccc2)cc1OC` [Example 215, 2-(2-((3,4-dimethoxybenzyl)amino)-2-oxoethoxy)-N-(2-oxo-2-phenylethyl)benzamide], the fold induction at 1 µM in assay [1] (setting [3]) came out at 0.975. Moreover, the “In vivo relative invation” value in assay [2] is recorded as 1.304.
The matching figures for `O=C(CNC(=O)c1ccccc1C(F)(F)F)c1ccccc1` [Example 30, N-(2-oxo-2-phenylethyl)-2-(trifluoromethyl)benzamide]: 1.41 and 0.7631.
In the same order, the values of `Cc1ccccc1C(=O)NCC(=O)c1cccnc1` [Example 135, 2-methyl-N-(2-oxo-2-(pyridin-3-yl)ethyl)benzamide] are 1.3 and 1.485.
The matching figures for `O=C(COc1ccccc1C(=O)NCC(=O)c1ccccc1)Nc1cccc(O)c1` [Example 223, 2-(2-((3-hydroxyphenyl)amino)-2-oxoethoxy)-N-(2-oxo-2-phenylethyl)benzamide]: 1.1 and 1.195.
As for `COc1ccc(S(=O)(=O)N2CCC(Oc3ccccc3C(=O)NCC(=O)c3ccccc3)CC2)cc1` [Example 189, 2-((1-((4-methoxyphenyl)sulfonyl)piperidin-4-yl)oxy)-N-(2-oxo-2-phenylethyl)benzamide], in assay [1] (setting [3]), the fold induction at 1 µM was 0.9. Also, in assay [2], the “In vivo relative invation” value is 1.185.
In the same order, the values of `C/C=C/C(=O)N1CCC(Oc2ccccc2C(=O)NCC(=O)c2ccccc2)CC1` [Example 158, (E)-2-((1-(but-2-enoyl)piperidin-4-yl)oxy)-N-(2-oxo-2-phenylethyl)benzamide] are 1 and 1.171.
In the same order, the values of `COc1cc(OC)cc(C(=O)NCC(=O)c2ccc(Cl)cc2)c1` [Example 85, N-(2-(4-chlorophenyl)-2-oxoethyl)-3,5imethoxybenzamide] are 0.96 and 1.206.
With `CC(C)(C)CC(=O)NCC(=O)c1ccccc1` [Example 19, 3,3-dimethyl-N-(2-oxo-2-phenylethyl) butanamide], the fold induction at 1 µM in assay [1] (setting [3]) is 0.98. The “In vivo relative invation” value in assay [2] turned out to be 1.201.
The matching figures for `CCCCN(CCO)Cc1cccc(C(=O)NCC(=O)c2cccc(OC)c2)c1` [Example 288, 3-((butyl (2-hydroxyethyl)amino)methyl)-N-(2-(3-methoxyphenyl)-2-oxoethyl)benzamide]: 1.73 and 1.222.
The matching figures for `O=C(COc1ccccc1C(=O)NCC(=O)c1ccccc1)Nc1cccc(Br)c1` [Example 225, 2-(2-((3-bromophenyl)amino)-2-oxoethoxy)-N-(2-oxo-2-phenylethyl)benzamide]: 1.35 and 1.235.
For `CC(Oc1ccccc1)C(=O)NCC(=O)c1ccccc1` (stereo not shown) [Example 2, N-(2-oxo-2-phenylethyl)-2-phenoxypropanamide], the fold induction at 1 µM in assay [1] worked out at 1.14. In assay [2], the “In vivo relative invation” value is given as 0.8651.
Regarding `CC(C)N(C)Cc1ccc(C(=O)NCC(=O)c2ccccc2)cc1` [Example 256, 4-((isopropyl(methyl)amino)methyl)-N-(2-oxo-2-phenylethyl)benzamide], in assay [1] (setting [3]), the fold induction at 1 µM worked out at 2.25. Besides, the “In vivo relative invation” value in assay [2] was 1.267.
The matching figures for `COc1cccc(NC(=O)COc2ccccc2C(=O)NCC(=O)c2ccccc2)c1` [Example 209, 2-(2-((3-methoxyphenyl)amino)-2-oxoethoxy)-N-(2-oxo-2-phenylethyl)benzamide]: 1.12 and 1.07.
In the same order, the values of `Cc1ccc(S(=O)(=O)N2CCC(Oc3ccccc3C(=O)NCC(=O)c3ccccc3)CC2)cc1` [Example 185, N-(2-oxo-2-phenylethyl)-2-((1-tosylpiperidin-4-yl)oxy)benzamide] are 1.12 and 1.114.
